Measured values published in ChEMBL document CHEMBL1144971, “Azido-containing aryl beta-diketo acid HIV-1 integrase inhibitors” (Bioorg Med Chem Lett, 2003).

Assays:
[1] = molecular target: T1, Human immunodeficiency virus type 1 integrase (Human immunodeficiency virus 1, UniProt Q7ZJM1); test: (§1) Inhibitory concentration against Recombinant HIV-1 integrase (Standard transfer reaction)
MT4 [2] = test: Antiviral potency was measured in HIV-1IIIb infected MT-4 human T-lymphoid cells; type: functional, cell-based
[3] = molecular target: T1, Human immunodeficiency virus type 1 integrase; test: (§2) Inhibitory concentration against Recombinant HIV-1 integrase (3'processing)
[4] = molecular target: T1, Human immunodeficiency virus type 1 integrase; test: as §1; remark: listed apart in the source
MT4 [5] = test: Cytotoxic concentration was measured against MT-4 human T-lymphoid cells; type: functional
[6] = molecular target: T1, Human immunodeficiency virus type 1 integrase; test: as §2; remark: listed apart in the source

T1 sequence (Q7ZJM1 whole entry): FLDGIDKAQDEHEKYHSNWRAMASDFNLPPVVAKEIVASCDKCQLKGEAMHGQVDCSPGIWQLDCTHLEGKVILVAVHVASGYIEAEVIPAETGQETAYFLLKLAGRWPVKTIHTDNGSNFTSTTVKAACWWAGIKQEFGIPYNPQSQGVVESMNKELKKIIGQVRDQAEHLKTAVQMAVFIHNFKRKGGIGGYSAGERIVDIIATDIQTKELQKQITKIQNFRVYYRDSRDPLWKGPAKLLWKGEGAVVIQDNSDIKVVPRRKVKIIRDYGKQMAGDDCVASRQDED

IC50 [1] [µM]	IC50 [3] [µM]	IC50 [4] [µM]	SMILES	IC50 (MT4 [2]) [µM]	CC50 (MT4 [5]) [µM]	IC50 [6] [µM]
6.1	> 100	7.1	[N-]=[N+]=NCc1ccc(C(=O)CC(=O)C(=O)O)cc1	> 25		
	> 100	0.48	O=C(O)C(=O)CC(=O)c1cc(OCc2ccccc2)cc(OCc2ccccc2)c1	1.9	> 50	
			COc1ccc(CN=[N+]=[N-])cc1C(=O)CC(=O)C(=O)O	13.5		
25	> 100	23	CC(C)Oc1ccc(CN=[N+]=[N-])cc1C(=O)CC(=O)C(=O)O	5.9		
2.8	> 100	2	[N-]=[N+]=NCc1cc(CN=[N+]=[N-])cc(C(=O)CC(=O)C(=O)O)c1	5	> 50	
	> 100	1.53	[N-]=[N+]=NCc1cccc(C(=O)CC(=O)C(=O)O)c1	2.1	> 50	
0.26	> 100	0.15	[N-]=[N+]=NCc1ccc(C(=O)CC(=O)C(=O)O)cc1CN=[N+]=[N-]	14.3	> 50	
1.5	> 100	1.8	N#CCCc1cccc(C(=O)CC(=O)C(=O)O)c1	> 25		
8.5	> 100	9	COc1ccc(C(=O)CC(=O)C(=O)O)cc1CN=[N+]=[N-]	> 25		

SMILES	IC50 [1] [µM]	IC50 [3] [µM]	IC50 [4] [µM]	IC50 (MT4 [2]) [µM]	CC50 (MT4 [5]) [µM]	IC50 [6] [µM]
[N-]=[N+]=NC1CCC(N=[N+]=[N-])c2cc(C(=O)CC(=O)C(=O)O)ccc21 (stereo not given)		70	0.32	15.6		
[N-]=[N+]=NC1CC(N=[N+]=[N-])c2cc(C(=O)CC(=O)C(=O)O)ccc21 (stereo not given)		> 100	0.36	> 25		
O=C(O)C(=O)CC(=O)c1cccc(OCc2ccccc2)c1		85	0.35	0.6		100
